Reference: patent publication US20150322403A1, “REGULATION OF EUKARYOTIC GENE EXPRESSION BY RIBOSOMAL READING-FRAME SWITCH EFFICIENCY CONTROL VIA REGULATORY ELEMENT UPSTREAM OF THE FRAMESHIFTING SITE” (NATIONAL CHUNG HSING UNIVERSITY, priority 2014, published 2015)

Legend:
theo-ON element = assay: in vitro -1 PRF activity analysis, upstream theo-ON element, reticulocyte lysate; settings: DU177 pseudoknot stimulator
theo-OFF2 element = assay: -1 PRF activity analysis, upstream theo-OFF2 element, wheat germ extract; settings: wheat germ lysate, compared with reticulocyte lysate
[1] = test system: theo-OFF1 element (theophylline aptamer); assay: in vitro -1 PRF activity analysis, upstream theo-OFF1 element, reticulocyte lysate; settings: DU177 pseudoknot stimulator, increasing amounts of theophylline
Text: The boxed nucleotides were deleted in the negative control theo-mOFF1 element.

[2] = test system: theo-OFF2 element and SAH-sensing pseudoknot stimulator; assay: -1 PRF activity, theo-OFF2 plus SAH-sensing pseudoknot, wheat germ lysate; type: biochemical; settings: theo-OFF2 fused with SAH-dependent stimulator
Text: We also fused theo-OFF2 with an SAH-dependent −1 PRF stimulator and examined the ligand-dependent −1 PRF activity in vitro using wheat germ lysate.

[3] = test system: GlcT-OFF RNA element (RAT sequence) upstream of the slippery site; assay: in vitro -1 PRF activity analysis, upstream GlcT-OFF element, reticulocyte lysate; type: biochemical; settings: DU177 pseudoknot stimulator, increasing amounts of protein
Text: (§1) Mfold was used to predict structures and free energies of the attenuator and anti-attenuator hairpins.
As the ribonucleic-antiterminator (RAT) sequence of Bacillus subtilis ptsGHI operon adopts an unstable internal loop conformation and can be stabilized by the binding of GlcT antiterminator protein (Langbein, I. et al, J. Mol. Biol. 293, 795-805, 1999), we designed a chimeric RNA element containing an RAT sequence (GlcT-OFF) with the 3′-side of RAT internal loop embedded in a stable hairpin stem and placed the chimeric RNA element upstream of the slippery site with a potent downstream −1 PRF stimulator (FIG. 3A). We rationalized that the engineered hairpin is the dominant conformation and serves as an upstream −1 PRF attenuator, whereas the addition of GlcT protein should disrupt the attenuator hairpin via RAT-GlcT complex formation and thus restore −1 PRF activity.
We then designed the second chimera to down-regulate the −1 PRF by the formation of an efficient attenuator hairpin promoted by the same RNA-protein interactions (FIG. 3A).

GlcT-ON RNA element = assay: in vitro -1 PRF activity analysis, upstream GlcT-ON element, reticulocyte lysate; type: biochemical; settings: DU177 pseudoknot stimulator, increasing amounts of protein
Text: as §1
Therefore, the GlcT-ON RNA element is embedded with three potential RNA motifs; that is, an RAT internal loop, an anti-attenuator hairpin and an efficient −1 PRF attenuator hairpin with the component of the anti-attenuator hairpin being overlapped with the other two motifs. Without the GlcT protein, this anti-attenuator hairpin might be the dominant conformation. Upon GlcT protein addition, the equilibrium might be driven by RNA-protein interaction to disrupt the anti-attenuator hairpin stem and thus release its 3′-side to facilitate the formation of an efficient −1 PRF attenuator hairpin.
Together, these proof-of-principle experiments indicate that −1 PRF activity can be regulated in-trans via a set of RNA-protein interactions designed to control the formation of an upstream −1 PRF attenuation hairpin.

## Cn1c(=O)c2[nH]cnc2n(C)c1=O [theophylline]
theo-ON element
  -1 PRF activity of reporter with theo-ON: down-regulation
theo-OFF2 element
  dynamic range of theophylline-dependent -1 PRF activity, theo-OFF2: even higher dynamic range
[1]
  in vitro -1 PRF activity of reporter harboring theo-OFF1: up-regulated

## Nc1ncnc2c1ncn2[C@@H]1O[C@H](CSCC[C@H](N)C(=O)O)[C@@H](O)[C@H]1O [SAH]
[2]
  -1 frameshifting efficiency in wheat germ lysate: only mildly increased

B1: GlcT protein: GlcT antiterminator protein binding the RAT sequence of Bacillus subtilis ptsGHI operon (protein, UniProt O31691 1-281, looked up)
PtsGHI operon antiterminator: MNGSFTVKKVLNNNVLIASHHKYSEVVLIGKGIGFGKKQDDVIEDKGYDKMFILKDEKEQKQFKKLLDYVDEKLVDISNDVIYHISNRTNHSLNEHIHIALTDHIAFAIKRQQQGFDMKNPFLMETQSLYPEEYQIAKEVIDMINEKAGLCLPEGEIGFIALHIHSALTNRPLSEVNQHSQLMAQLVEVIEDSFQMKVNKESVNYLRLIRHIRFTIERIKKEEPTKEPEKLMLLLKNEYPLCYNTAWKLIKILQQTLKKPVHEAEAVYLTLHLYRLTNKIS
[3]
  in vitro -1 PRF efficiency of reporter containing GlcT-OFF: up-regulated
GlcT-ON RNA element
  in vitro -1 PRF activity of reporter containing GlcT-ON: repressed
